The values below come from patent US5756109A, “Skin care compositions containing geranyl geraniol and retinol or retinyl esters” (Chesebrough-Pond's USA Co., Division of Conopco, Inc., priority 1996, dated 1998).

One assay deals with ARAT. The assay can be described thus: In vitro microsomal esterification of retinol, ARAT (retinyl palmitate formation). It counts as biochemical, bovine. The settings on record: 10 micromolar retinol, 1 hour, 37° C. From the text:
It is believed that the use of retinol or esters of retinol would be preferred over retinoic acid. Retinol is an endogenous compound which occurs naturally in the human body and is essential for normal epithelial cell differentiation. Retinol is also considered much safer than retinoic acid. Esters of retinol hydrolyze in-vivo to produce retinol. […] These esterification reactions are very efficient in keratinocytes--the majority (95%) of cellular retinoids are in the form of retinyl fatty esters.
(§1) Microsomes are obtained as described in: J. C.

Assay [1] concerns Human keratinocytes. Briefly: 3H-thymidine incorporation, keratinocyte proliferation (Example 3). It counts as cell-based. Conditions: for activity at […]: Homo sapiens, Keratinocyte, 250 nM, read-out: % Control (thymidine incorporation). Here is the method: (§2) Human keratinocytes, isolated from neonatal foreskin by trypsin treatment were grown in Dulbecco Modification Eagle (DME) Hams F12 (1:1) medium/10% fetal calf serum in the presence of irradiated 3T3 mouse fibroblasts for establishing dividing keratinocyte colonies. Cells were grown under the above condition until their second passage and kept frozen for future use. Frozen second passage keratinocytes were thawed and plated into the above medium and grown for five days before they were switched to a serum-free MCDB 153-based medium keratinocyte growth medium (KGM) from Clonetics Corporation, San Diego, Calif., containing 0.15 mM Ca, or keratinocyte serum-free media (KSFM) from GIBCO containing 0.09 mM Ca). On day 7, when the cells were 80-90% confluent, they were trypsinized and plated in the serum-free medium for the various experiments.
The incorporation of ^3 H-thymidine by cultured keratinocytes was used as an assay of keratinocyte proliferation. Thymidine is one of four deoxynucleosides which are the monomeric units of DNA, the universal library of genetic information in the animal kingdom. Prior to cell division of a somatic cell such as a keratinocyte, the complete genome of the cell undergoing cell division is replicated. This involves large scale DNA synthesis by the cell and enables both daughter cells to receive identical copies of the genetic material. When 3H-thymidine is included in the culture media of keratinocytes which are synthesizing DNA in preparation for cell division then the labelled nucleoside is incorporated into the newly synthesized DNA. The extent of incorporation of ^3 H-thymidine into a population of cells is proportional to the rate of DNA synthesis by this population of cells and therefore an indication of their cellular proliferation.
For Example 3, the following procedure was employed to measure thymidine incorporation:
Human keratinocytes were plated in 24-well plates at a density of 40,000 cells/well in 1 ml keratinocyte growth media. The cells were allowed to grow until they were 60-70% confluent (approx. 4 days), after which they were treated (in triplicate) with test agents in media for 4 hours. Tritiated thymidine (1 microcurie/ml) was then added, and the cells were incubated for an additional 18 hrs. The medium was removed and the cells were incubated for 30 minutes with ice cold 10% trichloroccetic acid. The cells were then washed 5× with 5% TCA and dissolved in 0.5 ml 0.1M NaOH. After neutralization with 0.1M HCl, aliquots were removed to measure protein and radioactivity by liquid scintillation counting.
^3 H-Thymidine incorporation was measured according to the procedure described in Materials and Methods section above.

The test system of another assay is retinol esterification. The assay can be described thus: In vitro microsomal esterification of retinol, ARAT and LRAT together (statements in words). The settings on record: compared with farnesol. It counts as biochemical, bovine.
Description: as §1

For assay [2], the system named is Human keratinocytes. The assay can be described thus: 3H-thymidine incorporation, keratinocyte proliferation (Example 1). It counts as cell-based. Conditions: […]10^-7, […]10^-8 and […]10^-9 M; over ethanol control and retinol treatments. The procedure: as §2
The incorporation of ^3 H-thymidine by cultured keratinocytes was used as an assay of keratinocyte proliferation. […]
Keratinocytes (that were cultured as described above) were plated in 24 well plates at a density of about 20,000 cells per well in 1 ml media. […] Disintegrations per minute (DPM) from ^3 H labelling of DNA was determined by liquid scintillation counting of 900 μl of the cell preparation. Thymidine incorporation results were expressed as DPM/μg protein.
(In general: Uptake of a labelled nucleoside into DNA is a usual measure of proliferation.)

Another assay has as its system TGase I. Briefly: Transglutaminase (TGase I) ELISA normalized to DNA, keratinocyte differentiation (Example 1). The class given is cell-based, human. Conditions: […]10^-7, […]10^-8 and […]10^-9 M. Here is the method: as §2
During the process of terminal differentiation in the epidermis, a 15 nm thick layer of protein, known as the cornified envelope (CE) is formed on the inner surface of the cell periphery. The CE is composed of numerous distinct proteins which have been cross-linked together by the formation of N^E -(γ-glutamyl) lysine isodipeptide bonds catalyzed by the action of at least two different transglutaminases (TGases) expressed in the epidermis. TGase I is expressed in abundance in the differentiated layers of the epidermis, especially the granular layer, but is absent in the undifferentiated basal epidermis. […]
Keratinocytes (cultured as described above) were plated in 96 well plates at a density of 3,000 cells per well in 200 μl media. […] The absorbance of samples was read at 492 nm in the plate reader. […] TGase levels were determined by subtracting background from the readings from each treatment and determining mean±s.d. for the replicates exposed to both Ab.
The level of TGase-1 detected after treatment of the cells could be influenced by cell number, i.e., the greater the number of cells the greater the level of TGase-1 detected. […]
Background: An ELISA detects its analyte on a solid surface through an enzyme-linked reagent.

“Also recorded” adds a separate entry of the source. Read-outs that look alike come from different tables or passages of the source.

For `CC(C)=CCCC(C)=CCCC(C)=CCO` [Farnesol, farnesol], the “% INHIB. ARAT” value was determined as 20% with ARAT (10 μM) and 43% with ARAT (100 μM).
Turning to `CC(C)=CCC/C(C)=C/CC/C(C)=C/CC/C(C)=C/CO` [Geranyl Geraniol, geranyl geraniol], the results for the “% INHIB. ARAT” value with ARAT (10 μM) and in the assay on ARAT (100 μM) were 38% and 81%, respectively. In addition, the “proliferation enhancing effect of retinol (in words)” value in the assay on Human keratinocytes [1] (10 nM geranyl geraniol with 250 nM retinol, compared with retinoic acid) is “significantly increase the proliferation enhancing effect of retinol to a level similar to that which can be achieved with a comparable amount of retinoic acid”. Further, the “inhibition of retinol esterification (in words)” value with retinol esterification was “substantially more potent esterification inhibitor, than farnesol; also recorded: substantially more potent at inhibiting retinol esterification than other terpenes, e.g., farnesol”.
For `CC1=C(/C=C/C(C)=C/C=C/C(C)=C/C(=O)O)C(C)(C)CCC1` [RA, Retinoic Acid], in the assay on Human keratinocytes [2], the “keratinocyte proliferation (in words)” value is “significantly increased keratinocyte proliferation”. Besides, the activity at […] came to 156% with Human keratinocytes [1] (Experiment #1) and 163% with Human keratinocytes [1] (Experiment #2). In the assay on TGase I, the “decrease in transglutaminase level (in words)” value is recorded as “dose dependent”. Further, in the assay on TGase I (over ethanol control and corresponding retinol treatments), the “keratinocyte differentiation (in words)” value was “decreased keratinocyte differentiation”.
Consider `CC1=C(/C=C/C(C)=C/C=C/C(C)=C/CO)C(C)(C)CCC1` [ROH, Retinol], for which the activity at […] in the assay with Human keratinocytes [1] (Experiment #1) was 108%; in the assay with Human keratinocytes [1] (Experiment #2), 107%. In the assay with TGase I, the “decrease in transglutaminase level (in words)” value is reported as “dose dependent”.
